In US8686113B2 (priority 2009, dated 2014):
Converted amounts (≈) assume the structure as drawn. Non-standard residues stand in square brackets, D forms with d. Residues, ends and D or L forms follow the SMILES beside them. Arg(NO2) = N=C(NCCC[C@H](N)C(=O)O)N[N+](=O)[O-]; NMeR = CN[C@@H](CCCNC(=N)N)C(=O)O; hArg = N=C(N)NCCCC[C@H](N)C(=O)O; β3hR = N=C(N)NCCC[C@H](N)CC(=O)O; Agp = N=C(N)NC[C@H](N)C(=O)O; Orn = NCCC[C@H](N)C(=O)O; Dap = NC[C@H](N)C(=O)O

How the values were obtained:
E. coli BL21 A1 = assay type: cell-based, Escherichia coli; conditions: BL21, 20 h
Experimental: (§1) The minimum inhibitory concentrations (MIC) of the antimicrobial peptides and peptide derivatives were determined in microdilution assays. These used a continuous peptide dilution in sterile flat-bottomed 96-well microtiter plates (polystyrene, Greiner Bio-One GmbH, Frickenhausen, Germany) and a total volume of 100 μL per well. The aqueous peptide or peptidomimetic solutions were diluted with 1% TSB water, to obtain a final concentration of 256 μg/mL. 50 μL of the peptide or peptidomimetic solution was pipetted into the first well of each series and stirred. From this solution, 50 μL was transferred to the second well, stirred and again 50 μL was transferred to the next well, and so on. A double dilution series is obtained, beginning at 256 μg/mL in the first well to 125 ng/mL in the twelfth well. The bacteria, e.g. E. coli BL21 A1, were cultured overnight at 37° C. in nutrient broth (NB, Carl Roth GmbH+Co. KG, Karlsruhe, Germany). 50 μL of a 5×10^6 bacteria/mL suspension in 1% TSB was added to each well of the microtiter plate and thus a final concentration of the peptides or peptidomimetics from 128 μg/mL (well 1) to 62.5 ng/mL (well 12) was established in each series. The plates were incubated at 37° C. for 20 h and then the absorption was measured at 595 nm with a TECAN microtiter plate spectrophotometer (Tecan Trading AG, Mannedorf, Switzerland). The MIC values of all peptides and peptidomimetics were determined in triplicate. Sterile water was used as negative control. The MIC value represents the lowest peptide concentration at which no bacterial growth is observed after an incubation time of 20 h at 37° C.
(§2) The MIC values of the peptides and peptide derivatives against Escherichia coli BL21 A1 and Micrococcus luteus ATCC 10240 are given in Table 7.

M. luteus 10240 = experiment: Growth inhibition assay (microdilution MIC); assay type: cell-based, Micrococcus luteus; conditions: 10240, 20 h
Experimental: as §1, §2

| MIC E. coli BL21 A1 (E. coli BL21 A1) [µg/mL] | MIC M. luteus 10240 (M. luteus 10240) [µg/mL] | SMILES |
| --- | --- | --- |
| 32 (≈ 13.5 µM) | 64 (≈ 27.1 µM) | CC[C@H](C)[C@H](NC(=O)[C@H](CCCNC(=N)N)NC(=O)[C@H](CCCNC(=N)N)NC(=O)[C@@H]1CCCN1C(=O)[C@@H]1CCCN1C(=O)[C@H](CCCNC(=N)N)NC(=O)[C@@H]1CCCN1C(=O)[C@H](CCCNC(=N)N)NC(=O)[C@@H]1CCCN1C(=O)[C@H](CC(C)C)NC(=O)[C@H](Cc1ccc(O)cc1)NC(=O)[C@@H]1CCCN1C(=O)[C@@H]1CCCN1C(=O)[C@H](CCCCN)NC(=O)[C@H](CC(=O)O)NC(=O)[C@@H](N)C(C)C)C(=O)N[C@@H](Cc1ccc(O)cc1)C(=O)N[C@@H](CC(N)=O)C(=O)N[C@@H](CNC(C)=O)C(N)=O [compound 52] (H-VDKPPYLPRPRPPRRIYN[Dap](Ac)-NH2; N-terminus assumed) |
| 8 (≈ 3.39 µM) | 8 (≈ 3.39 µM) | CC[C@H](C)[C@H](NC(=O)[C@H](CCCNC(=N)N)NC(=O)[C@H](CCCNC(=N)N)NC(=O)[C@@H]1CCCN1C(=O)[C@@H]1CCCN1C(=O)[C@H](CCCNC(=N)N)NC(=O)[C@@H]1CCCN1C(=O)[C@H](CCCNC(=N)N)NC(=O)[C@@H]1CCCN1C(=O)[C@H](CC(C)C)NC(=O)[C@H](Cc1ccc(O)cc1)NC(=O)[C@@H]1CCCN1C(=O)[C@@H]1CCCN1C(=O)[C@H](CCCCN)NC(=O)[C@H](CC(=O)O)NC(=O)[C@@H](N)C(C)C)C(=O)N[C@@H](Cc1ccc(O)cc1)C(=O)N[C@@H](CC(N)=O)C(=O)N[C@@H](CNC(=N)N)C(N)=O [compound 54] (H-VDKPPYLPRPRPPRRIYN[Agp]-NH2) |
| 8 (≈ 3.29 µM) | 16 (≈ 6.57 µM) | CC[C@H](C)[C@H](NC(=O)[C@H](CCCNC(=N)N)NC(=O)[C@H](CCCNC(=N)N)NC(=O)[C@@H]1CCCN1C(=O)[C@@H]1CCCN1C(=O)[C@H](CCCNC(=N)N)NC(=O)[C@@H]1CCCN1C(=O)[C@H](CCCNC(=N)N)NC(=O)[C@@H]1CCCN1C(=O)[C@H](CC(C)C)NC(=O)[C@H](Cc1ccc(O)cc1)NC(=O)[C@@H]1CCCN1C(=O)[C@@H]1CCCN1C(=O)[C@H](CCCCN)NC(=O)[C@H](CC(=O)O)NC(=O)[C@@H](N)C(C)C)C(=O)N[C@@H](Cc1ccc(O)cc1)C(=O)N[C@@H](CC(N)=O)C(=O)N[C@@H](CCCNC(=N)N[N+](=O)[O-])C(N)=O [compound 55] (H-VDKPPYLPRPRPPRRIYN[Arg(NO2)]-NH2) |
| 8 (≈ 3.33 µM) | 4 (≈ 1.66 µM) | CC[C@H](C)[C@H](NC(=O)[C@H](CCCNC(=N)N)NC(=O)[C@H](CCCNC(=N)N)NC(=O)[C@@H]1CCCN1C(=O)[C@@H]1CCCN1C(=O)[C@H](CCCNC(=N)N)NC(=O)[C@@H]1CCCN1C(=O)[C@H](CCCNC(=N)N)NC(=O)[C@@H]1CCCN1C(=O)[C@H](CC(C)C)NC(=O)[C@H](Cc1ccc(O)cc1)NC(=O)[C@@H]1CCCN1C(=O)[C@@H]1CCCN1C(=O)[C@H](CCCCN)NC(=O)[C@H](CC(=O)O)NC(=O)[C@@H](N)C(C)C)C(=O)N[C@@H](Cc1ccc(O)cc1)C(=O)N[C@@H](CC(N)=O)C(=O)N(C)[C@@H](CCCNC(=N)N)C(N)=O [compound 56] (H-VDKPPYLPRPRPPRRIYN[NMeR]-NH2; N-terminus assumed) |
| 8 (≈ 3.33 µM) | 8 (≈ 3.33 µM) | CC[C@H](C)[C@H](NC(=O)[C@H](CCCNC(=N)N)NC(=O)[C@H](CCCNC(=N)N)NC(=O)[C@@H]1CCCN1C(=O)[C@@H]1CCCN1C(=O)[C@H](CCCNC(=N)N)NC(=O)[C@@H]1CCCN1C(=O)[C@H](CCCNC(=N)N)NC(=O)[C@@H]1CCCN1C(=O)[C@H](CC(C)C)NC(=O)[C@H](Cc1ccc(O)cc1)NC(=O)[C@@H]1CCCN1C(=O)[C@@H]1CCCN1C(=O)[C@H](CCCCN)NC(=O)[C@H](CC(=O)O)NC(=O)[C@@H](N)C(C)C)C(=O)N[C@@H](Cc1ccc(O)cc1)C(=O)N[C@@H](CC(N)=O)C(=O)N[C@@H](CCCCNC(=N)N)C(N)=O [compound 57] (H-VDKPPYLPRPRPPRRIYN[hArg]-NH2) |
| 4 (≈ 1.68 µM) | 2 (≈ 0.842 µM) | CC[C@H](C)[C@H](NC(=O)[C@H](CNC(=N)N)NC(=O)[C@H](CCCNC(=N)N)NC(=O)[C@@H]1CCCN1C(=O)[C@@H]1CCCN1C(=O)[C@H](CCCNC(=N)N)NC(=O)[C@@H]1CCCN1C(=O)[C@H](CCCNC(=N)N)NC(=O)[C@@H]1CCCN1C(=O)[C@H](CC(C)C)NC(=O)[C@H](Cc1ccc(O)cc1)NC(=O)[C@@H]1CCCN1C(=O)[C@@H]1CCCN1C(=O)[C@H](CCCCN)NC(=O)[C@H](CC(=O)O)NC(=O)[C@@H](N)C(C)C)C(=O)N[C@@H](Cc1ccc(O)cc1)C(=O)N[C@@H](CC(N)=O)C(=O)N[C@@H](CCCCNC(=N)N)C(N)=O [compound 65] (H-VDKPPYLPRPRPPR[Agp]IYN[hArg]-NH2) |
| 8 (≈ 3.43 µM) | 4 (≈ 1.71 µM) | CC[C@H](C)[C@H](NC(=O)[C@H](CNC(=N)N)NC(=O)[C@H](CCCNC(=N)N)NC(=O)[C@@H]1CCCN1C(=O)[C@@H]1CCCN1C(=O)[C@H](CCCNC(=N)N)NC(=O)[C@@H]1CCCN1C(=O)[C@H](CCCNC(=N)N)NC(=O)[C@@H]1CCCN1C(=O)[C@H](CC(C)C)NC(=O)[C@H](Cc1ccc(O)cc1)NC(=O)[C@@H]1CCCN1C(=O)[C@@H]1CCCN1C(=O)[C@H](CCCCN)NC(=O)[C@H](CC(=O)O)NC(=O)[C@@H](N)C(C)C)C(=O)N[C@@H](Cc1ccc(O)cc1)C(=O)N[C@@H](CC(N)=O)C(=O)N[C@@H](CNC(=N)N)C(N)=O [compound 66] (H-VDKPPYLPRPRPPR[Agp]IYN[Agp]-NH2) |
| 4 (≈ 1.68 µM) | 4 (≈ 1.68 µM) | CC[C@H](C)[C@H](NC(=O)[C@H](CCCCNC(=N)N)NC(=O)[C@H](CCCNC(=N)N)NC(=O)[C@@H]1CCCN1C(=O)[C@@H]1CCCN1C(=O)[C@H](CCCNC(=N)N)NC(=O)[C@@H]1CCCN1C(=O)[C@H](CCCNC(=N)N)NC(=O)[C@@H]1CCCN1C(=O)[C@H](CC(C)C)NC(=O)[C@H](Cc1ccc(O)cc1)NC(=O)[C@@H]1CCCN1C(=O)[C@@H]1CCCN1C(=O)[C@H](CCCCN)NC(=O)[C@H](CC(=O)O)NC(=O)[C@@H](N)C(C)C)C(=O)N[C@@H](Cc1ccc(O)cc1)C(=O)N[C@@H](CC(N)=O)C(=O)N[C@@H](CNC(=N)N)C(N)=O [compound 68] (H-VDKPPYLPRPRPPR[hArg]IYN[Agp]-NH2) |
| 4 (≈ 1.72 µM) | 4 (≈ 1.72 µM) | CC[C@H](C)[C@H](NC(=O)[C@H](CCCN)NC(=O)[C@H](CCCNC(=N)N)NC(=O)[C@@H]1CCCN1C(=O)[C@@H]1CCCN1C(=O)[C@H](CCCNC(=N)N)NC(=O)[C@@H]1CCCN1C(=O)[C@H](CCCNC(=N)N)NC(=O)[C@@H]1CCCN1C(=O)[C@H](CC(C)C)NC(=O)[C@H](Cc1ccc(O)cc1)NC(=O)[C@@H]1CCCN1C(=O)[C@@H]1CCCN1C(=O)[C@H](CCCCN)NC(=O)[C@H](CC(=O)O)NC(=O)[C@@H](N)C(C)C)C(=O)N[C@@H](Cc1ccc(O)cc1)C(=O)N[C@@H](CC(N)=O)C(=O)N[C@@H](CNC(=N)N)C(N)=O [compound 69] (H-VDKPPYLPRPRPPR[Orn]IYN[Agp]-NH2) |

| SMILES | MIC E. coli BL21 A1 (E. coli BL21 A1) [µg/mL] | MIC M. luteus 10240 (M. luteus 10240) [µg/mL] |
| --- | --- | --- |
| CC[C@H](C)[C@H](NC(=O)C[C@H](CCCNC(=N)N)NC(=O)[C@H](CCCNC(=N)N)NC(=O)[C@@H]1CCCN1C(=O)[C@@H]1CCCN1C(=O)[C@H](CCCNC(=N)N)NC(=O)[C@@H]1CCCN1C(=O)[C@H](CCCNC(=N)N)NC(=O)[C@@H]1CCCN1C(=O)[C@H](CC(C)C)NC(=O)[C@H](Cc1ccc(O)cc1)NC(=O)[C@@H]1CCCN1C(=O)[C@@H]1CCCN1C(=O)[C@H](CCCCN)NC(=O)[C@H](CC(=O)O)NC(=O)[C@@H](N)C(C)C)C(=O)N[C@@H](Cc1ccc(O)cc1)C(=O)N[C@@H](CC(N)=O)C(=O)N[C@@H](CCCNC(=N)N)C(N)=O [compound 62] (H-VDKPPYLPRPRPPR[β3hR]IYNR-NH2) | 4 (≈ 1.66 µM) | 16 (≈ 6.66 µM) |
